From patent US20190175557A1, “COMPOUNDS USEFUL FOR DECREASING INTERFERON LEVEL” (priority 2016, published 2019)

Legend:
[1] = test system: human Flu-activated primary PBMC; assay: cells; assay type: cell-based; conditions: read-out: EC50
HIV-stimulated pDC [2] = assay: IFN-α / type I IFN production by HIV-stimulated purified pDC (ELISA); assay type: cell-based, human
[3] = test system: pristane-induced SLE in Balb/c mice; assay: Pristane-induced systemic lupus erythematosus (SLE) model in Balb/c mice; assay type: in vivo, mouse; conditions: 3, 10, 30 mg/kg IP QD
Description: Receive and quarantine (SOP 560) 70 female Balb/C (20-25 g) mice and house in filter-topped cages supplied with autoclaved bedding.
The animals are weighed, ear tagged for individual identification and randomly assigned to 8 treatment groups of 8 animals each and two groups of 3 animals (for pre-tolerance at 30 mg/kg of survival).
The test items compounds clobenpropit (CB) and IT1t are stored at 4° C.
Mouse weights are recorded twice a week, and daily observations for clinical signs.
Collected sera are stored at −80° C. for measurements of autoantibody on weeks 4, 8 and 10. (Predose will kept at −80° C. for potential use). Anti-dsDNA level is a standard screening readout for identifying efficacy of test compounds in a SLE model.
Measurements: weeks 4, 8, 10: (1) autoantibody (anti-dsDNA), collagen and cytokines TNFα, IL-6 and TRAIL by ELISA and (2) ANA antibody by IFA.

flu-exposed human PBMC = assay type: cell-based; conditions: cells pre-treated before Flu exposure, human PBMC
HIV-stimulated pDC [4] = assay: Activation markers and cytokine mRNA in HIV-stimulated pDC (RT-qPCR, flow cytometry); assay type: cell-based, human
CXCR4 [5] = biological target: T1, CXCR4 (Homo sapiens, UniProt P61073)
[6] = test system: Flu-stimulated pDC from wild type and H4R KO mice; assay type: cell-based, mouse; conditions: CB 10 μM, overnight Influenza A
[7] = test system: HIV or LPS stimulated monocytes; assay: IFN-γ mRNA in monocytes stimulated with HIV or LPS (RT-qPCR); assay type: cell-based; conditions: RT-qPCR normalized to RPL13A
Description: Data shown are representative of two independent experiments.
Monocytes were pre-incubated with clobenpropit (CB), IT1t or chloroquine before being activated by HIV and LPS. IFN-γ levels were measured by RT-qPCR and normalized to RPL13A mRNA expression.

CXCR4 [8] = biological target: T1, CXCR4; assay: CXCR4 internalization and co-localization in pDC (microscopy); assay type: cell-based; conditions: cells incubated with CB, compared to untreated cells
Description: Cells were then incubated with anti-CXCR4 antibody (Biolegend, San Diego, Calif.) in saturation buffer PBS-BSA 0.5% for membrane staining or in permeabilizing buffer containing 1% saponin with monoclonal antibody anti-TRAIL (Biolegend, San Diego, Calif., USA). […] Nucleus was stained using DAPI (Molecular Probes, Paisley, UK). Slides were mounted with Fluoromount-G (eBioscience, CA, USA) and scanned with a Nikon Eclipse 90i Upright microscope (Nikon Instruments Europe, Badhoevedorp, The Netherlands) using a 100× Plan Apo VC piezo objective (NA 1.4) and Chroma bloc filters (ET-DAPI, ET-GFP) and were subsequently deconvoluted with a Meinel algorithm and 8 iterations and analyzed using Metamorph® (MDS Analytical Technologies, Winnersh, UK). TRAIL/DAPI/Overlay/Confocal plane: Representative 2D focal plan. Overlay with bright: Bright. […]
In other cases, cells were cultured overnight in media alone then were washed in ice-cold PBS-BSA 0.2% and stained with CXCR4 antibody (R&D Systems) for 1 hour at 4° C. […] Data are expressed as the mean percentage ±SEM mean channel fluorescence intensity (MFI) values for residual surface expression and intracellular staining. […]
7 pictures were taken from each slide for each Z section framing the nucleus. Quantification of the colocalization in the cytoplasm of purified pDC using Mander's Coefficient was obtained after analyze by JACoP pluging in ImageJ. […]

H4R = H4R (Homo sapiens, UniProt Q9H3N8); assay type: cell-based
HIV-stimulated pDC [9] = assay: TRAIL relocalization to the membrane of HIV-stimulated pDC (3D microscopy); assay type: cell-based, human
Description: Cells were then incubated with anti-CXCR4 antibody (Biolegend, San Diego, Calif.) in saturation buffer PBS-BSA 0.5% for membrane staining or in permeabilizing buffer containing 1% saponin with monoclonal antibody anti-TRAIL (Biolegend, San Diego, Calif., USA). […] Nucleus was stained using DAPI (Molecular Probes, Paisley, UK). Slides were mounted with Fluoromount-G (eBioscience, CA, USA) and scanned with a Nikon Eclipse 90i Upright microscope (Nikon Instruments Europe, Badhoevedorp, The Netherlands) using a 100× Plan Apo VC piezo objective (NA 1.4) and Chroma bloc filters (ET-DAPI, ET-GFP) and were subsequently deconvoluted with a Meinel algorithm and 8 iterations and analyzed using Metamorph® (MDS Analytical Technologies, Winnersh, UK). TRAIL/DAPI/Overlay/Confocal plane: Representative 2D focal plan. Overlay with bright: Bright. Reconvolution overlays: 2D projections of the maximum intensity pixels along the Z-axis.
7 pictures were taken from each slide for each Z section framing the nucleus. Quantification of the colocalization in the cytoplasm of purified pDC using Mander's Coefficient was obtained after analyze by JACoP pluging in ImageJ.

T1 sequence (P61073 whole entry): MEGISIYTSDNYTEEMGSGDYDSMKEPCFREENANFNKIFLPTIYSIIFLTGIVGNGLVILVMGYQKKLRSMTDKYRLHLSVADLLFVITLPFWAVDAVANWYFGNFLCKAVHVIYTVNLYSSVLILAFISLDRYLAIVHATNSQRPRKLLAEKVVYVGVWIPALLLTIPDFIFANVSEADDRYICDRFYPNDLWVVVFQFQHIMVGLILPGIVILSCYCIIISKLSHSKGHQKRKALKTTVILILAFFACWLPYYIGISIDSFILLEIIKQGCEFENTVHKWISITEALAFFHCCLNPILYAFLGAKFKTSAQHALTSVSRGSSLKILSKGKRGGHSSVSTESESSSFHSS
H4R, sequence (Q9H3N8 whole entry): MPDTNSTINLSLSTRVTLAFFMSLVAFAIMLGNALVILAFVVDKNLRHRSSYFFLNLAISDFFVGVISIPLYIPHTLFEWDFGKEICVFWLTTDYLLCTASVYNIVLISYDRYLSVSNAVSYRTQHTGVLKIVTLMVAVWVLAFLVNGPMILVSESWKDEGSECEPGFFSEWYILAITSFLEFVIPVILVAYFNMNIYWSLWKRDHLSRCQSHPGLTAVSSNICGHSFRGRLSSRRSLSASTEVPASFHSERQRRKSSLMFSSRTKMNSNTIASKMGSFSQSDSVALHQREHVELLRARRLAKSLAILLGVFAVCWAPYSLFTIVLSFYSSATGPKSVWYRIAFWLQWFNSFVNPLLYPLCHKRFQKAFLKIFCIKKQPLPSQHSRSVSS

SMILES: NC(=NCc1ccc(Cl)cc1)SCCCc1cnc[nH]1 [Clobenpropit, clobenpropit]
- EC50 [1]: 24 ± 2 µM
- IFN-α production kinetics by HIV-stimulated pDC (HIV-stimulated pDC [2]; after 9 h of incubation): inhibited
- inhibitory effect on pDC activation / IFN-α production by HIV-1 (HIV-stimulated pDC [2]; purified pDC, 10 μM): stronger inhibitory effect than histamine
- reduction of levels of IFN-α secreted following HIV stimulation (HIV-stimulated pDC [2]; purified pDC, 10 μM, ELISA): approximately 90%
- symptoms of pristane-Induced Systemic Lupus Erythematosus [3]: reduce symptoms
- body weight during the study ([3]; compared to dose started date): no loss of body weight
- ds-DNA level ([3]; compared to group 1 (vehicle)): inhibition
- IFN-α/β and IFN-λ2/3 mRNA levels (flu-exposed human PBMC): significantly reduced
- iNOS or IL-15 gene expression (HIV-stimulated pDC [4]; HIV-1-stimulated pDC, RT-qPCR): neither CB nor FFN-511 affected
- transcription of virus-induced genes (TRAIL, IFNs, IL6, IL8, IL10, CXCL10, ISG56) induced in pDC by HIV-1 (HIV-stimulated pDC [4]; RT-qPCR profiling, normalized to RPL13A): dramatically inhibited
- effect of CXCR4 silencing on the inhibitory effect (CXCR4 [5]; pDC activated by a CCR5-tropic (R5) HIV-1 and Flu): blocked
- effect of CXCR4 gene silencing on the inhibitory effect on type I IFN and TRAIL (CXCR4 [5]; pDC stimulated by CXCR4-tropic HIV-1): suppressed
- IFN-α production by Flu-stimulated pDC from H4R KO mice [6]: inhibited
- IFN-α production by Flu-stimulated pDC from wild type mice [6]: inhibited
- IFN-γ expression by HIV or LPS stimulated monocytes [7]: inhibit
- intracellular / extracellular CXCR4 in pDC (CXCR4 [8]): most of CXCR4 was detected intracellularly
- effect of H4R knock down on inhibitory activity on IFN-α, IFN-β and TRAIL productions by HIV-stimulated pDC (H4R): did not block
- TRAIL localization to the cell membrane in HIV-stimulated pDC (HIV-stimulated pDC [9]): significantly inhibited
